# Assay results published in PubChem BioAssay (NCI).
#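 Cultured in 96-well plates, cells were exposed to test compound for 48 hours across five concentrations. Here, GI50 denotes the concentration required for 50% inhibition of growth. TGI: total growth inhibition.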
# Tests used:
# Experiment in all cases: inhibition of tumour cell growth, NCI panel, 48 h
# [1] = test system: HOP-92 NSCLC
# [2] = test system: T-47D breast
# [3] = test system: SN12C renal
# [4] = test system: SF-268 CNS
# [5] = test system: MALME-3M melanoma
# [6] = test system: CAKI-1 renal
# [7] = test system: KM12 colon
# [8] = test system: 786-0 renal
# [9] = test system: MDA-MB-231 breast
# [10] = test system: MCF7 breast
# [11] = test system: HL-60(TB) leukemia
# [12] = test system: HOP-62 NSCLC
# [13] = test system: HCC-2998 colon
# [14] = test system: NCI-H522 lung
# [15] = test system: M14 melanoma
# [16] = test system: SNB-75 CNS
# [17] = test system: K-562 leukemia
# [18] = test system: BT-549 breast
# [19] = test system: UO-31 renal
# [20] = test system: HCT-116 colon
# [21] = test system: SF-539 CNS
# [22] = test system: PC-3 prostate
# [23] = test system: A549 NSCLC
# [24] = test system: SK-OV-3 ovarian
# [25] = test system: NCI-H460 lung
# [26] = test system: SNB-19 CNS
# [27] = test system: IGROV1 ovarian
# [28] = test system: SW-620 colon
# [29] = test system: HS 578T breast
# [30] = test system: HCT-15 colon
# [31] = test system: ACHN renal
# [32] = test system: DU-145 prostate
# [33] = test system: RPMI-8226 leukemia
# [34] = test system: U251 CNS
# [35] = test system: A498 renal
# [36] = test system: UACC-62 melanoma
# [37] = test system: TK-10 renal
# [38] = test system: LOX IMVI melanoma
# [39] = test system: NCI-H226 lung
# [40] = test system: CCRF-CEM leukemia
# [41] = test system: OVCAR-4 ovarian
# [42] = test system: MOLT-4 leukemia
# [43] = test system: RXF 393 renal
# [44] = test system: NCI-H23 lung
# [45] = test system: HT29 colon
# [46] = test system: OVCAR-5 ovarian
# [47] = test system: UACC-257 melanoma
# [48] = test system: SK-MEL-28 melanoma
# [49] = test system: OVCAR-8 ovarian
# [50] = test system: OVCAR-3 ovarian
# [51] = test system: NCI/ADR-RES ovarian
# [52] = test system: MDA-MB-435
# [53] = test system: COLO 205 colon
# [54] = test system: SK-MEL-5 melanoma
# [55] = test system: SK-MEL-2 melanoma
smiles,measurement,setting,value
Cc1ccc2ccc3c4ccccc4ccc3c2c1,GI50,[1],12.7 µM
same,TGI,[1],43.9 µM
same,GI50,[2],23 µM
same,TGI,[2],74.6 µM
same,GI50,[3],27 µM
same,TGI,[3],> 100 µM
same,GI50,[4],32.1 µM
same,TGI,[4],> 100 µM
same,GI50,[5],22.1 µM
same,TGI,[5],54.3 µM
same,GI50,[6],20.9 µM
same,TGI,[6],63.7 µM
same,GI50,[7],21.6 µM
same,TGI,[7],68.5 µM
same,GI50,[8],24.4 µM
same,TGI,[8],69.8 µM
same,GI50,[9],17.4 µM
same,TGI,[9],47.9 µM
same,GI50,[10],15.5 µM
same,TGI,[10],39.3 µM
same,GI50,[11],23.8 µM
same,TGI,[11],60.5 µM
same,GI50,[12],38 µM
same,TGI,[12],> 100 µM
same,GI50,[13],20.8 µM
same,TGI,[13],43.2 µM
same,GI50,[14],19.1 µM
same,TGI,[14],51.7 µM
same,GI50,[15],28.6 µM
same,TGI,[15],> 100 µM
same,GI50,[16],39.3 µM
same,TGI,[16],> 100 µM
same,GI50,[17],34.7 µM
same,TGI,[17],> 100 µM
same,GI50,[18],30.9 µM
same,TGI,[18],> 100 µM
same,GI50,[19],23.3 µM
same,TGI,[19],> 100 µM
same,GI50,[20],31.2 µM
same,TGI,[20],> 100 µM
same,GI50,[21],47.7 µM
same,TGI,[21],> 100 µM
same,GI50,[22],30.4 µM
same,TGI,[22],> 100 µM
same,GI50,[23],29.2 µM
same,TGI,[23],> 100 µM
same,GI50,[24],39.5 µM
same,TGI,[24],> 100 µM
same,GI50,[25],26.3 µM
same,TGI,[25],76 µM
same,GI50,[26],26.7 µM
same,TGI,[26],> 100 µM
same,GI50,[27],20 µM
same,TGI,[27],94.8 µM
same,GI50,[28],25.9 µM
same,TGI,[28],> 100 µM
same,GI50,[29],27.7 µM
same,TGI,[29],> 100 µM
same,GI50,[30],23.3 µM
same,TGI,[30],83.5 µM
same,GI50,[31],31.9 µM
same,TGI,[31],> 100 µM
same,GI50,[32],34.6 µM
same,TGI,[32],> 100 µM
same,GI50,[33],21 µM
same,TGI,[33],59.2 µM
same,GI50,[34],28.3 µM
same,TGI,[34],> 100 µM
same,GI50,[35],23.1 µM
same,TGI,[35],63.6 µM
same,GI50,[36],21.8 µM
same,TGI,[36],> 100 µM
same,GI50,[37],28.5 µM
same,TGI,[37],67.8 µM
same,GI50,[38],19.8 µM
same,TGI,[38],44.3 µM
same,GI50,[39],30.3 µM
same,TGI,[39],> 100 µM
same,GI50,[40],22 µM
same,TGI,[40],52.4 µM
same,GI50,[41],17 µM
same,TGI,[41],> 100 µM
same,GI50,[42],21.2 µM
same,TGI,[42],57.6 µM
same,GI50,[43],20.1 µM
same,TGI,[43],46.8 µM
same,GI50,[44],22.4 µM
same,TGI,[44],96.5 µM
same,GI50,[45],22.9 µM
same,TGI,[45],77.7 µM
same,GI50,[46],28.8 µM
same,TGI,[46],95.6 µM
same,GI50,[47],27.1 µM
same,TGI,[47],83.4 µM
same,GI50,[48],39.4 µM
same,TGI,[48],> 100 µM
same,GI50,[49],32.9 µM
same,TGI,[49],> 100 µM
same,GI50,[50],25.5 µM
same,TGI,[50],67.6 µM
same,GI50,[51],30.7 µM
same,TGI,[51],> 100 µM
same,GI50,[52],18.1 µM
same,TGI,[52],71 µM
same,GI50,[53],18 µM
same,TGI,[53],32.6 µM
same,GI50,[54],27.6 µM
same,TGI,[54],92.9 µM
same,GI50,[55],19 µM
same,TGI,[55],41.8 µM
